Results taken from patent US8648118B2, “Bicyclic ring system substituted amide functionalised phenols as medicaments” (Boehringer Ingelheim International GmbH, priority 2010, dated 2014).

biological target: T1, BAF/3 cells expressing human CXCR2 (Homo sapiens, UniProt P25025); test: Chemotaxis assay 1, transfected cell line: inhibition of CXCL1 induced chemotaxis; type: cell-based; conditions: inhibition of CXCL1 (3 nM) induced chemotaxis of BAF/3 cells expressing human CXCR2; 4 hours incubation
T1 construct: expressed in transfected cells; host or cells: BAF/3 cells
T1 sequence (P25025 1-360): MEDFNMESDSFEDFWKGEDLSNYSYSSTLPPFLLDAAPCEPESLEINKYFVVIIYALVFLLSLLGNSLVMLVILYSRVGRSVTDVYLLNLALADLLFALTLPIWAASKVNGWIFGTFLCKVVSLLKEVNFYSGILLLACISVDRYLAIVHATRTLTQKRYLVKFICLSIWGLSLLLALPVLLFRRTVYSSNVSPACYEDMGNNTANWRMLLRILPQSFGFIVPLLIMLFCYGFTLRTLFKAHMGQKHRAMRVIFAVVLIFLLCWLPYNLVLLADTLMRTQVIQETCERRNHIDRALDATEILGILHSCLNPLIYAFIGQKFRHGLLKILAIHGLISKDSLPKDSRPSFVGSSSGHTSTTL
Description: Chemotaxis assay 1, transfected cell line: This assay measures the inhibition of CXCL1 induced chemotaxis of BAF/3 cells expressing human CXCR2. For each assay point, 100 μL of a 3×10^6/mL cell suspension are incubated with 1 μL of test compound diluted in DMSO. The bottom wells of a chemotaxis plate (5 μm pore size, Neuroprobe) is filled with 305 μL of chemotaxis buffer (RPMI 1640 medium (phenol red free), containing 2% fetal calf serum) and 3 nM CXCL1. The 5 μm pore membrane is applied onto the chemotaxis plate and 80 μL of the cell suspension is cautiously pipetted onto the membrane. The lid is put on the chemotaxis plate and the plate is incubated for 4 hours in an incubator (37° C., 5% CO2). For quantification of migrated cells, the cell suspension and the lid are removed and 100 μL from the bottom chamber are transferred to an Opti plate 96 (Perkin Elmer). 100 μL of substrate solution (provided by Cell Titer Glo kit, Promega) are added. This method uses the measurement of ATP present in metabolically active cells. After 10 min incubation at room temperature the plate is measured at Luminoscan for quantification of ATP-dependent generation of oxyluciferin. IC50s of the tested compound are calculated by non-linear regression and using a sigmoidal dose-response curve as fitting algorithm (provided by GraphPadPrism). Determination of a bottom value is performed by quantification of migration of buffer treated cells, migrating towards buffer only. Determination of a top value is performed by quantification of migration of buffer treated cells, migrating towards CXCL1.

| Compound | IC50 |
| --- | --- |
| O=C(Nc1ccccc1Br)Nc1cccc(C(=O)N2CCC3(CCNC3=O)CC2)c1O [Example 1] | 597 nM |
| O=C(Nc1cccc(C(=O)N2CCC3(CCNC3=O)CC2)c1O)Nc1cccc(Cl)c1Cl [Example 3] | 634 nM |
| O=C(Nc1ccccc1Br)Nc1cccc(C(=O)N2CCN3CCCC3C2)c1O (centres unmarked) [Example 5] | 377 nM |
| O=C(Nc1cccc(C(=O)N2CCN3CCCC3C2)c1O)Nc1cccc(Cl)c1Cl (centres unmarked) [Example 7] | 2570 nM |
| O=C(Nc1ccccc1Br)Nc1cccc(C(=O)N2CCN3CCC[C@@H]3C2)c1O [Example 8] | 651 nM |
| O=C(Nc1ccccc1Br)Nc1cccc(C(=O)N2CCN3CCC[C@H]3C2)c1O [Example 10] | 260 nM |
| O=C(Nc1ccccc1Br)Nc1cccc(C(=O)N2CCN3C(=O)CCC3C2)c1O (centres unmarked) [Example 12] | 119 nM |
| O=C(Nc1cccc(C(=O)N2CC(=O)N3CCCC3C2)c1O)Nc1cccc(F)c1Cl (centres unmarked) [Example 15] | 86 nM |
| CC[C@H](Nc1c(Nc2cccc(C(=O)N3CCN4CCC[C@@H]4C3)c2O)c(=O)c1=O)c1ccccc1 [Example 23] | 2740 nM |
| CC[C@H](Nc1c(Nc2cccc(C(=O)N3CCN4CCC[C@H]4C3)c2O)c(=O)c1=O)c1ccccc1 [Example 25] | 1350 nM |
| CC[C@@H](Nc1c(Nc2cccc(C(=O)N3CCN4C(=O)CCC4C3)c2O)c(=O)c1=O)c1ccccc1 (some centres unmarked) [Example 30] | 267 nM |
| CC[C@@H](Nc1c(Nc2cccc(C(=O)N3CC(=O)N4CCCC4C3)c2O)c(=O)c1=O)c1ccccc1 (some centres unmarked) [Example 31] | 662 nM |
| CC[C@@H](Nc1c(Nc2cccc(C(=O)N3CCS(=O)(=O)C4(CCNC4=O)C3)c2O)c(=O)c1=O)c1ccccc1 (some centres unmarked) [Example 32] | 401 nM |
| CC[C@@H](Nc1c(Nc2cccc(C(=O)N3CCC4(CCNC4=O)CC3)c2O)c(=O)c1=O)c1ccccc1 [Example 34] | 126 nM |
| CC[C@@H](Nc1c(Nc2cccc(C(=O)N3CCC4(CC3)COCC(=O)N4)c2O)c(=O)c1=O)c1ccccc1 [Example 44] | 2130 nM |
| CC[C@@H](Nc1c(Nc2cccc(C(=O)N3CCN4C(CCS4(=O)=O)C3)c2O)c(=O)c1=O)c1ccccc1 (some centres unmarked) [Example 47] | 818 nM |
| CC[C@@H](Nc1c(Nc2cccc(C(=O)N3CCN4C(=O)CCC4C3)c2O)c(=O)c1=O)c1ccc(C(F)(F)F)o1 (some centres unmarked) [Example 48] | 859 nM |
| CC[C@@H](Nc1c(Nc2cccc(C(=O)N3CCN4CCNC(=O)C4C3)c2O)c(=O)c1=O)c1ccccc1 (some centres unmarked) [Example 49] | 926 nM |
| CC[C@@H](Nc1c(Nc2cccc(C(=O)N3CCC4(CCNC4=O)CC3)c2O)c(=O)c1=O)c1ccc(C)o1 [Example 50] | 1850 nM |
| O=C(c1cccc(Nc2c(Nc3cccc(F)c3Cl)c(=O)c2=O)c1O)N1CCN2CCCCC2C1 (centres unmarked) [Example 51] | 247 nM |
| O=C(c1cccc(Nc2c(Nc3cccc(F)c3Cl)c(=O)c2=O)c1O)N1CC2(COC2)C1 [Example 53] | 360 nM |
| O=C1NCCC2C1CCN2C(=O)c1cccc(Nc2c(Nc3cccc(F)c3Cl)c(=O)c2=O)c1O (centres unmarked) [Example 55] | 617 nM |
| O=C(c1cccc(Nc2c(Nc3cccc(F)c3Cl)c(=O)c2=O)c1O)N1CC(=O)N2CCCC2C1 (centres unmarked) [Example 56] | 865 nM |

The remaining compounds from weak to strong by IC50, led by results:

| IC50 | Compound |
| --- | --- |
| 85 nM | O=C(Nc1ccccc1Br)Nc1cccc(C(=O)N2CC(=O)N3CCCC3C2)c1O (centres unmarked) [Example 16] |
| 67 nM | O=C(c1cccc(Nc2c(Nc3cccc(F)c3Cl)c(=O)c2=O)c1O)N1CCN2CCOCC2C1 (centres unmarked) [Example 54] |
| 66 nM | CC[C@@H](Nc1c(Nc2cccc(C(=O)N3CCC4C(=O)NCCC43)c2O)c(=O)c1=O)c1ccccc1 (some centres unmarked) [Example 41] |
| 51 nM | CC[C@@H](Nc1c(Nc2cccc(C(=O)N3CCN4CCOC[C@H]4C3)c2O)c(=O)c1=O)c1ccccc1 [Example 46] |
| 50 nM | O=C(Nc1cccc(C(=O)N2CCN3C(=O)COC[C@@H]3C2)c1O)Nc1cccc(F)c1Cl [Example 19] |
| 47 nM | O=C(Nc1cccc(C(=O)N2CCN3C(=O)CCC3C2)c1O)Nc1cccc(Cl)c1Cl (centres unmarked) [Example 13] |
| 45 nM | CC[C@@H](Nc1c(Nc2cccc(C(=O)N3CCO[C@@H]4CNC[C@H]43)c2O)c(=O)c1=O)c1ccccc1 [Example 42] |
| 41 nM | O=C(Nc1cccc(C(=O)N2CCN3CCC[C@H]3C2)c1O)Nc1cccc(F)c1Cl [Example 11] |
| 40 nM | CC[C@@H](Nc1c(Nc2cccc(C(=O)N3CCN4CCC[C@H]4C3)c2O)c(=O)c1=O)c1ccc(C(F)(F)F)o1 [Example 28] |
| 34 nM | O=C(Nc1cccc(C(=O)N2CCC3(CCNC3=O)CC2)c1O)Nc1cccc(F)c1Cl [Example 4] |
| 34 nM | CC[C@@H](Nc1c(Nc2cccc(C(=O)N3CC4OC(C)(C)C[C@@H]4[C@H]3CO)c2O)c(=O)c1=O)c1ccccc1 (some centres unmarked) [Example 40] |
| 26 nM | CC[C@@H](Nc1c(Nc2cccc(C(=O)N3CCC4(CCCC4)CC3)c2O)c(=O)c1=O)c1ccccc1 [Example 37] |
| 25 nM | CC[C@@H](Nc1c(Nc2cccc(C(=O)N3CC4(COC4)C3)c2O)c(=O)c1=O)c1ccccc1 [Example 36] |
| 23 nM | CC[C@@H](Nc1c(Nc2cccc(C(=O)N3CC4OC(C)(C)C[C@@H]4[C@H]3C(=O)OC)c2O)c(=O)c1=O)c1ccccc1 (some centres unmarked) [Example 39] |
| 22 nM | O=C(Nc1cccc(C(=O)N2CCN3CCC[C@@H]3C2)c1O)Nc1cccc(F)c1Cl [Example 9] |
| 16 nM | CCC(Nc1c(Nc2cccc(C(=O)N3CCN4CCCC4C3)c2O)c(=O)c1=O)c1ccccc1 (centres unmarked) [Example 20] |
| 16 nM | CC[C@@H](Nc1c(Nc2cccc(C(=O)N3CCN4CCOCC4C3)c2O)c(=O)c1=O)c1ccccc1 (some centres unmarked) [Example 35] |
| 11 nM | O=C(Nc1cccc(C(=O)N2CCN3C(=O)CCC3C2)c1O)Nc1cccc(F)c1Cl (centres unmarked) [Example 14] |
| 11 nM | O=C(Nc1cccc(C(=O)N2CCN3C(=O)COC[C@H]3C2)c1O)Nc1cccc(F)c1Cl [Example 18] |
| 11 nM | CC[C@@H](Nc1c(Nc2cccc(C(=O)N3CCO[C@@H]4CN(C)C[C@H]43)c2O)c(=O)c1=O)c1ccccc1 [Example 43] |
| 8 nM | O=C(c1cccc(Nc2c(Nc3cccc(F)c3Cl)c(=O)c2=O)c1O)N1CCN2CCCC2C1 (centres unmarked) [Example 21] |
| 6.2 nM | O=C(c1cccc(Nc2c(Nc3cccc(F)c3Cl)c(=O)c2=O)c1O)N1CCC2(CCNC2=O)CC1 [Example 52] |
| 4.1 nM | CCC(Nc1c(Nc2cccc(C(=O)N3CCC4(CCNC4=O)CC3)c2O)c(=O)c1=O)c1ccccc1 (centres unmarked) [Example 29] |
| 3.9 nM | CC[C@@H](Nc1c(Nc2cccc(C(=O)N3CCN4CCC[C@H]4C3)c2O)c(=O)c1=O)c1ccccc1 [Example 26] |
| 3.4 nM | CC[C@@H](Nc1c(Nc2cccc(C(=O)N3CCN4C(=O)COC[C@@H]4C3)c2O)c(=O)c1=O)c1ccccc1 [Example 38] |
| 3.3 nM | CC[C@@H](Nc1c(Nc2cccc(C(=O)N3CC4OCCN(C)C4C3)c2O)c(=O)c1=O)c1ccccc1 (some centres unmarked) [Example 45] |
| 3.2 nM | CC[C@@H](Nc1c(Nc2cccc(C(=O)N3CCN4CCC[C@@H]4C3)c2O)c(=O)c1=O)c1ccccc1 [Example 24] |
| 1.5 nM | O=C(c1cccc(Nc2c(Nc3ccccc3Br)c(=O)c2=O)c1O)N1CCN2CCCC2C1 (centres unmarked) [Example 22] |
| 1.2 nM | O=C(Nc1cccc(C(=O)N2CCN3CCOCC3C2)c1O)Nc1cccc(F)c1Cl (centres unmarked) [Example 17] |
| 0.1 nM | CC[C@@H](Nc1c(Nc2cccc(C(=O)N3CCN4CCC[C@H]4C3)c2O)c(=O)c1=O)c1ccc(C)o1 [Example 27] |
